Assay results: the supplement of paper PMC10307832

Key:
Test in all cases: relative viability (nuclei count vs DMSO), 5 days (fraction); higher = more cells survive
MK-2206 + Decitabine = compound: NC1(c2ccc(-c3nc4ccn5c(=O)[nH]nc5c4cc3-c3ccccc3)cc2)CCC1 [MK-2206] + Nc1ncn([C@H]2C[C@H](O)[C@@H](CO)O2)c(=O)n1 [Decitabine] (partner 2 µM)
In short: (§1)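 Dosing by pin tool came one day after lung cancer cell lines were seeded in 1536-well plates, using either one drug or a fixed anchor-drug dose plus five library-drug doses (not always all listed) in √10 steps. After 5 days, nuclei were counted on 4× images. Relative viability is treated-well nuclei count divided by vehicle-well nuclei count, and values are medians of duplicate plates.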

Pictilisib + Linsitinib = compound: CS(=O)(=O)N1CCN(Cc2cc3nc(-c4cccc5[nH]ncc45)nc(N4CCOCC4)c3s2)CC1 [Pictilisib] + C[C@]1(O)C[C@@H](c2nc(-c3ccc4ccc(-c5ccccc5)nc4c3)c3c(N)nccn32)C1 [Linsitinib] (partner 1 µM)
In short: as §1

Pictilisib + Crizotinib = compound: CS(=O)(=O)N1CCN(Cc2cc3nc(-c4cccc5[nH]ncc45)nc(N4CCOCC4)c3s2)CC1 [Pictilisib] + C[C@@H](Oc1cc(-c2cnn(C3CCNCC3)c2)cnc1N)c1c(Cl)ccc(F)c1Cl [Crizotinib] (partner 1 µM)
In short: as §1

MK-2206 + Pemetrexed = compound: NC1(c2ccc(-c3nc4ccn5c(=O)[nH]nc5c4cc3-c3ccccc3)cc2)CCC1 [MK-2206] + Nc1nc2[nH]cc(CCc3ccc(C(=O)N[C@@H](CCC(=O)O)C(=O)O)cc3)c2c(=O)[nH]1 [Pemetrexed] (partner 0.2 µM)
In short: as §1

MK-2206 + Crizotinib = compound: NC1(c2ccc(-c3nc4ccn5c(=O)[nH]nc5c4cc3-c3ccccc3)cc2)CCC1 [MK-2206] + C[C@@H](Oc1cc(-c2cnn(C3CCNCC3)c2)cnc1N)c1c(Cl)ccc(F)c1Cl [Crizotinib] (partner 1 µM)
In short: as §1

Cell Line	relative viability (MK-2206 + Decitabine; first compound 0.01 µM)	relative viability (MK-2206 + Decitabine; first compound 0.03162 µM)	relative viability (MK-2206 + Decitabine; first compound 0.3162 µM)	relative viability (MK-2206 + Decitabine; first compound 1 µM)	relative viability (Pictilisib + Linsitinib; first compound 0.02 µM)	relative viability (Pictilisib + Linsitinib; first compound 0.06325 µM)	relative viability (Pictilisib + Linsitinib; first compound 0.6325 µM)	relative viability (Pictilisib + Linsitinib; first compound 2 µM)	relative viability (Pictilisib + Crizotinib; first compound 0.02 µM)	relative viability (Pictilisib + Crizotinib; first compound 0.06325 µM)	relative viability (Pictilisib + Crizotinib; first compound 0.6325 µM)	relative viability (Pictilisib + Crizotinib; first compound 2 µM)	relative viability (MK-2206 + Pemetrexed; first compound 0.01 µM)	relative viability (MK-2206 + Pemetrexed; first compound 0.03162 µM)	relative viability (MK-2206 + Pemetrexed; first compound 0.3162 µM)	relative viability (MK-2206 + Pemetrexed; first compound 1 µM)	relative viability (MK-2206 + Crizotinib; first compound 0.01 µM)	relative viability (MK-2206 + Crizotinib; first compound 0.03162 µM)	relative viability (MK-2206 + Crizotinib; first compound 0.3162 µM)	relative viability (MK-2206 + Crizotinib; first compound 1 µM)
LU99A	0.854	0.937	0.921	0.903	0.576	0.468	0.326	0.244	0.56	0.545	0.44	0.346	0.174	0.152	0.186	0.203	0.609	0.647	0.524	0.535
SW 1573	0.505	0.43	0.502	0.453	0.844	0.709	0.618	0.41	0.817	0.791	0.626	0.268	0.782	0.793	0.726	0.713	0.814	0.762	0.493	0.748
COR-L23	0.411	0.417	0.421	0.388	0.914	0.886	0.878	0.387	0.584	0.75	0.668	0.594	0.184	0.187	0.195	0.172	0.69	0.691	0.796	0.693
NCI-H1755	0.724	0.71	0.726	0.638	1.02	0.975	0.906	0.53	0.848	0.829	0.827	0.546	0.405	0.404	0.353	0.374	0.875	0.836	0.798	0.727
LOU-NH91	0.783	0.839	0.793	0.768	1.02	0.918	0.798	0.557	0.725	0.708	0.716	0.571	0.366	0.406	0.345	0.356	0.709	0.727	0.72	0.715
EMC-BAC-2	0.98	0.956	0.939	0.829	0.809	0.787	0.716	0.538	0.779	0.811	0.691	0.601	0.435	0.377	0.439	0.407	0.714	0.729	0.781	0.745
NCI-H2023	0.247	0.225	0.243	0.211	0.508	0.414	0.208	0.264	0.513	0.533	0.331	0.201	0.266	0.195	0.25	0.209	0.614	0.686	0.481	0.387
EKVX	0.359	0.339	0.324	0.322	1.02	0.948	0.749	0.429	0.898	1.15	0.801	0.493	0.372	0.386	0.393	0.356	0.897	1.1	0.858	0.868
NCI-H2085	0.511	0.584	0.513	0.514	0.86	0.835	0.786	0.334	0.887	0.994	0.747	0.394	0.866	1.02	0.953	0.841	0.887	0.888	0.876	0.724
NCI-H3122	0.38	0.416	0.396	0.426	0.988	0.963	0.681	0.354	0.258	0.253	0.194	0.186	0.202	0.197	0.203	0.193	0.261	0.278	0.218	0.263
HCC-827	0.347	0.256	0.276	0.228	0.938	1.01	1.03	0.711	0.901	0.991	0.921	0.548	0.272	0.242	0.268	0.274	0.966	0.874	0.977	0.98
HARA	0.435	0.481	0.551	0.587	0.979	1.06	0.803	0.353	1.05	1.15	0.972	0.722	0.269	0.23	0.265	0.217	1.11	1.08	0.986	0.979
NCI-H441	0.248	0.251	0.206	0.234	0.58	0.581	0.414	0.325	0.513	0.632	0.504	0.388	0.256	0.238	0.255	0.249	0.798	0.639	0.612	0.643
SK-MES-1	0.383	0.4	0.371	0.321	1.02	1.01	0.836	0.456	1.04	0.971	0.804	0.492	0.881	0.938	0.899	0.816	0.953	1.02	1.04	0.816
HCC-15	0.63	0.774	0.549	0.353	0.852	0.928	0.87	0.762	0.791	0.926	0.761	0.583	0.254	0.198	0.218	0.204	0.824	0.823	0.868	0.769
EPLC-272H	0.392	0.345	0.364	0.392	1.2	1.19	0.875	0.865	0.995	0.993	0.702	0.72	0.329	0.319	0.3	0.354	0.951	0.928		1.01

Cell Line	relative viability (MK-2206 + Decitabine; first compound 0.01 µM)	relative viability (MK-2206 + Decitabine; first compound 0.03162 µM)	relative viability (MK-2206 + Decitabine; first compound 0.3162 µM)	relative viability (MK-2206 + Decitabine; first compound 1 µM)	relative viability (Pictilisib + Linsitinib; first compound 0.02 µM)	relative viability (Pictilisib + Linsitinib; first compound 0.06325 µM)	relative viability (Pictilisib + Linsitinib; first compound 0.6325 µM)	relative viability (Pictilisib + Linsitinib; first compound 2 µM)	relative viability (Pictilisib + Crizotinib; first compound 0.02 µM)	relative viability (Pictilisib + Crizotinib; first compound 0.06325 µM)	relative viability (Pictilisib + Crizotinib; first compound 0.6325 µM)	relative viability (Pictilisib + Crizotinib; first compound 2 µM)	relative viability (MK-2206 + Pemetrexed; first compound 0.01 µM)	relative viability (MK-2206 + Pemetrexed; first compound 0.03162 µM)	relative viability (MK-2206 + Pemetrexed; first compound 0.3162 µM)	relative viability (MK-2206 + Pemetrexed; first compound 1 µM)	relative viability (MK-2206 + Crizotinib; first compound 0.01 µM)	relative viability (MK-2206 + Crizotinib; first compound 0.03162 µM)	relative viability (MK-2206 + Crizotinib; first compound 0.3162 µM)	relative viability (MK-2206 + Crizotinib; first compound 1 µM)
NCI-H2009	0.379	0.376	0.432	0.365	1.21	1.18	1.16	0.799	1.02	1.02	1.04	0.705	1.05	1.01	1.05	1.03	1.04	1.05	1.12	1.04
NCI-H661	0.538	0.574	0.591	0.528	0.527	0.428	0.455	0.233		1.01	1.24	0.729	0.986	0.91	0.876	0.877	0.952	0.911	0.809	0.961
NCI-H520	0.489	0.527	0.264	0.212	0.975	1.09	0.56	0.208	0.826	0.884	0.504	0.197	0.612	0.68	0.351	0.183	0.833	0.741	0.42	0.421
NCI-H2405	0.766	0.788	0.72	0.74	1.05	0.96	0.7	0.5	0.884	0.854	0.745	0.558	1.01	1.07	1.02	0.978	0.79	0.858	0.83	0.786
LCLC-97TM1	0.242	0.259	0.26	0.206	0.17	0.161	0.189	0.17	0.236	0.277	0.317	0.159	0.186	0.138	0.146	0.189	0.34	0.329	0.303	0.284
LK-2	0.36	0.355	0.286	0.12	0.609	0.537	0.526	0.426	0.251	0.23	0.239	0.23	0.265	0.309	0.246	0.252	0.211	0.236	0.229	0.211
PC-3 [JPC-3]	0.806	0.807	0.855	0.852	0.985	0.945	0.97	0.893	0.983	0.969	1.03	0.905	1.12	1.24	1.23	1.07	0.973	0.98	0.946	1.03
NCI-H596	1.03	1.03	0.99	0.914	1.02	0.853	0.643	0.337	0.91	1.05	0.631	0.354	0.45	0.567	0.502	0.498	0.978	1	0.898	0.736
NCI-H460	0.491	0.506	0.513	0.419	0.78	0.733	0.154	0.0347	0.956	0.945	0.501	0.0993	0.0681	0.0647	0.0757	0.0577	0.86	0.905	0.855	0.893
NCI-H647	0.39	0.365	0.414	0.408	1.16	1.15	1.02	0.439	1.16	1.18	0.884	0.524	0.201	0.165	0.144	0.134	1.03	1.06	1.04	0.897
NCI-H838	0.472	0.494	0.496	0.451	1.05	0.891	0.891	0.448	0.871	0.795	0.76	0.497	0.245	0.227	0.255	0.201	0.857	0.812	0.834	0.765
PC-14	0.22	0.248	0.215	0.253	0.934	0.937	0.91	0.588	0.909	0.928	0.926	0.681	0.129	0.14	0.164	0.144	0.826	0.928	0.914	0.879
NCI-H358	0.216	0.208	0.201	0.217	0.681	0.685	0.464	0.393	0.658	0.455	0.607	0.408	0.169	0.154	0.186	0.162	0.773	0.638	0.563	0.562
NCI-H1915	0.263	0.252	0.264	0.251	1.07	1.06	1.12	1.07	0.855	1	0.889	0.898	0.487	0.42	0.473	0.494	0.911	0.923	0.874	0.905
201T	0.817	0.892	0.882	0.842	0.989	1.05	0.902	0.82	1.04	1.04	1.03	0.788	0.318	0.313	0.342	0.333	1.02	1.07	1.03	1.01
